The source of these data is patent publication US20150297591A1, “METHODS OF TREATING PULMONARY FIBROSIS” (Duke University, priority 2012, published 2015).

For test [1] the following is noted: following RT; by decreasing free radical injury; cited from earlier work.
In another test the test system is C57BL/6 mice. The test is described as follows: Radiation fibrosis model in C57BL/6 mice (15 Gy thoracic RT), SMA immunostaining of lung. The test is classed as in vivo, mouse. Particulars: C57BL/6 lungs 20 wks post-15 Gy; 77427 IP twice weekly for 20 weeks; vs RT+PBS. The source says:
Our first investigation tested the hypothesis that GRP contributes to RTP using an established mouse model of radiation fibrosis in C57BL/6 mice, which are prone to fibrosis. Following exposure to high-dose thoracic radiation (15 Gy), we treated mice intraperitoneally (IP) with either PBS or GRP blockade by using small molecule 77427. We quantified results of immunohistochemistry by using quantitative image analysis with ImageJ to determine whether GRP contributes to RT-induced inflammatory responses and/or fibrosis, specifically including assessment of active TGFβsignaling^7. As noted above, the first investigation (FIGS. 1 and 2) tested the hypothesis that GRP contributes to RTP using an established mouse model of radiation fibrosis in C57BL/6 mice. Following exposure to high-dose thoracic radiation (15 Gy), we treated mice intraperitoneally (IP) with either PBS or GRP blockade by using small molecule 77427. We quantified results of immunohistochemistry by using quantitative image analysis with ImageJ to determine whether GRP contributes to RT-induced inflammatory responses and/or fibrosis, specifically including assessment of active TGFβ signaling^7. In FIG. 1B, note that there is extensive immunostaining for myofibroblasts in the alveolar walls (arrows) in mice exposed to RT 20 weeks earlier and given only PBS. […]

Test [2] deals with C57L/J (L/J) mice. The experiment in a line: C57L/J model of radiation pneumonitis (15 Gy thoracic RT), SMA immunostaining of lung. The format is in vivo, mouse. As for the experimental part: (§1) In a second series of experiments, C57L/J (L/J) mice were treated with 15 Gy of thoracic radiation. L/J mice are exquisitely sensitive to even low doses of RT, and rapidly develop both pneumonitis and fibrosis. Groups of L/J mice were injected intraperitoneally with PBS, 77427 or 2A11, given as a single dose (20 nmole per mouse) at 24 hours post-RT.
It was recently observed by Zelcko Vujaskovic et al that C57L/J (L/J) mice have radiation sensitivity very similar to humans^19, making the L/J model of radiation-pneumonitis most clinically relevant. Using this L/J model, we treated mice IP with a single dose of 77427 (10 nmol per mouse) given IP at 24 hours post-RT. At 15 weeks later, we observed early evidence of pulmonary fibrosis that was abrogated by the single dose of 77427 (FIG. 3). […] Therefore, we have included a claim that GRP blockade may be a treatment to prevent, arrest, or reverse pulmonary arteriopathy leading to pulmonary hypertension, another serious and poorly understood medical condition that is now treated symptomatically.

Test [3] has as its system C57L/J (L/J) mice. The test is described as follows: C57L/J model, Masson's trichrome staining for collagen in alveoli. The test is classed as in vivo, mouse. As for the experimental part:
as §1
In normal, Sham-irradiated lung (FIG. 5A), there are only traces of green collagen staining in the alveolar walls (arrows). In contrast, 15 weeks post-RT, early collagen deposition is widespread throughout the alveolar walls.
We quantified the area of green trichrome staining in the trichrome-stained slides (including those shown in FIG. 5), using ImageJ, normalized for the total area of alveolar tissue in the same photomicrograph, similar to the analysis used for FIG. 4.

Test [4] deals with C57L/J (L/J) mice. The experiment in a line: C57L/J model, hydroxyproline assay on whole mouse lungs (total lung collagen). The conditions noted are these: 15 weeks post-RT, single dose, initial assay results. The test is classed as in vivo. As for the experimental part:
as §1
As a second measure of pulmonary collagen levels, we carried out the hydroxyproline assay on whole mouse lungs from the same groups of mice as given in the legend to FIG. 3. There is a trend toward increased collagen at 15 weeks post-RT, which is confounded to some extent by the presence of collagen in connective tissue of blood vessels and airways in normal lung. Additional samples are being assayed in the near future.

The subject of test [5] is C57L/J (L/J) mice. The test is described as follows: C57L/J model, toluidine blue staining for mast cells in lung sections. The format is in vivo, mouse. Particulars: 15 weeks post-RT, single dose 24 h post-RT. As for the experimental part: as §1
There were no detectable subpleural or interstitial mast cells in any sham controls, nor in any lungs at 10 weeks post-RT. At 15 weeks post-RT there was a dramatic accumulation of mast cells subpleurally (black arrows) and in the alveolar interstitium (red arrows). These were most abundant in mice treated with RT+PBS (FIG. 8A), with a reduction by over 50% in mice give 77427 (FIG. 8B). Total numbers of subpleural mast cells have been quantified for all of the lung tissue on each slide and will be normalized for the length of pleura present.

As to `CCN1C=CC=C/C1=C1/C2=NC(=C(c3cccc[n+]3CC)C3=NC(=C(c4cccc[n+]4CC)c4ccc([n-]4)C(c4cccc[n+]4CC)=C4C=CC1=N4)C=C3)C=C2.[Cl-].[Cl-].[Cl-].[Cl-].[Cl-].[Mn+3]` [AEOL10113], the “severity of RTP” value in test [1] was “can reduce the severity of RTP”.
On to `Nc1nc(Cl)cc(NCCO)n1` [compound 77427], for which the “interstitial SMA staining (myofibroblasts in alveolar walls), early indicator of radiation fibrosis” value in the test on C57BL/6 mice is recorded as “abrogates this interstitial SMA staining”. Moreover, in the test on C57L/J (L/J) mice [2] (C57L/J lung 15 wks post-15 Gy, single dose IP 24 h post-RT), the “SMA+ myofibroblasts in small distal blood vessels” value is on record as “greatly reduces SMA+ myofibroblasts in small distal blood vessels”. Besides, the “early evidence of pulmonary fibrosis (SMA+ cells)” value in the test on C57L/J (L/J) mice [2] (C57L/J, 15 weeks post-RT, single dose 10 nmol per mouse IP at 24 hours post-RT) was “abrogated”. The “trichrome (collagen) levels in the alveoli” value with C57L/J (L/J) mice [3] (C57L/J lung 15 weeks post-15 Gy, single dose 24 h post-RT) was “reduced trichrome levels in the alveoli to near baseline levels”. Besides, the “alveolar collagen deposition (quantified trichrome area normalized for alveolar tissue area)” value in the test with C57L/J (L/J) mice [3] (C57L/J, 15 weeks post-high dose RT, RT+PBS vs RT+77427 P<0.001) is reported as “abrogates alveolar collagen deposition”. The “hydroxyproline content of whole lung (total lung collagen)” value with C57L/J (L/J) mice [4] is listed as “do not have elevated hydroxyproline content”. Further, in the test on C57L/J (L/J) mice [5], the “reduction of mast cells (subpleural and alveolar interstitium) versus RT+PBS” value is given as “over 50%”; the “subpleural mast cells (toluidine blue staining)” value is “reduced”.
